Test results taken from patent publication US20040220205A1 (priority 2001, published 2004).
Values joined by “and” are separate entries in the source; they are usually repeats but may differ in a detail not shown here. Equal entries are not always repeated. Structures can show the parent of a compound that is named as a salt.

Legend:
[1] = test system: dopamine release (striatum); test: Microdialysis experiment (striatum) with one entero-coated tablet; assay type: in vivo; conditions: rat striatum microdialysis
Protocol: One entero-coated tablet prepared as described in Example 1 and containing about 5 mg of NPA hydrochloride was administered to a rat in the way described in Pharmacological Experiment 2 and a standard microdialysis was carried out.
Pharmacological Experiment 2 was repeated but using an entero-coated tablet containing about 5 mg of mono-pivaloyl-apomorphine base instead of NPA hydrochloride.
(§1) Pharmacological Experiment 2 was repeated but using an enterocoated tablet prepared as described in Example 3 containing about 1 mg of mono-pivaloyl-N-propyl-noraporphine (MPNPA) base instead of NPA hydrochloride.

[2] = test system: rats; test: Behavioural experiment - injection into duodenum (with oral control); assay type: in vivo, rat; conditions: for duration of dopaminergic behavior: dur (total duration of action) / duration of dopaminergic behavior: intense stereotypy / duration of dopaminergic behavior: less intense stereotypy: rat, bolus injection into duodenum; for duration of dopaminergic behavior: intense stereotypy / duration of dopaminergic behavior: less intense stereotypy: period after injection
Description: These rats had been operated 1-14 days before the experiment. A plastic tubing was introduced entering through the duodenum wall at about the mid section and bent in such a way that it had its duct directed downwards (i.e. aiming downstream towards the jejunum and being about 2 cm long). An experienced scientist observed the animals for the entire period of pharmacological activity, scoring the behavior and emphasizing the following details:
yawning, sniffing, chewing, licking, rearing, grooming, penile grooming, locomotor activity and stereotypy. The total duration of action where one or several of these behaviors were present was scored.

[3] = test system: rat; test: Behavioural experiment - entero-coated pill; assay type: in vivo
Protocol: One entero-coated tablet prepared as described in Example 1 and containing about 5 mg of NPA hydrochloride was placed under anesthesia (isoflurane) in the throat of a rat and pushed down the throat with a blunt instrument. Within five minutes, the rat was awake and exploring the cage. After about 3 to 4 hours, the rat began to show dopaminergic stimulatory signs like sniffing, chewing, penile licking, grooming and stereotypy with rearing, locomotor activity, intense sniffing and also licking. This stereotypy lasted for more than 24 hours.
as §1

[4] = earlier reports on symmetric di-esters of aporphines; cited from earlier work
[5] = one entero-coated tablet containing about 5 mg mono-pivaloyl-apomorphine base
[6] = one entero-coated tablet containing about 5 mg NPA hydrochloride
[7] = one entero-coated tablet containing about 5 mg, pushed down the throat
[8] = control experiment, administered orally to the same rat, 4 mg/kg

For monopivaloyl-apomorphine [Mono-Piv-Apo], the “dopamine release at maximal decrease” value [1, 5] was 80 % of control values, the “maximal decrease of dopamine release” value [1, 5] was 20% and the “time after which dopamine release decreases” value [1, 5] was “about 60 minutes”. The “time until dopamine release is back to control values” [1, 5] was “after about eight hours”, the “duration of dopaminergic behavior: dur (total duration of action)” value (“duration of dopaminergic behavior: dur” for short) ([2]; 4.6 mg/kg) was 120 min and the “duration of dopaminergic behavior: intense stereotypy” value ([2]; 4.6 mg/kg) was “intense stereotypy (5-105); less intense min”. The “duration of dopaminergic behavior: less intense stereotypy” value (“duration … less intense stereotypy” for short) ([2]; 4.6 mg/kg) was 105 to 115 min, the “duration of dopaminergic behavior: dur” value ([2]; 5.9 mg/kg) was 135 min and 120 min and the “duration … less intense stereotypy” value ([2]; 5.9 mg/kg, 5.9 mg/kg) was 105 to 130 min and 80 to 90 min.
In the case of `CCCN1CCc2cccc3c2C1Cc1ccc(O)c(OC(=O)C(C)(C)C)c1-3` (stereo not drawn) [MPNPA, mono-pivaloyl-N-propyl-noraporphine], the “period of continuous decrease of dopamine release” value ([1]; one entero-coated tablet containing about 1 mg MPNPA base) was “between one hour and four hours”, the dopamine release ([1]; one entero-coated tablet containing about 1 mg MPNPA base, at 18 hours after application of the pill) was 80 % of controls and the “dopamine release, maximal decrease” value ([1]; one entero-coated tablet containing about 1 mg MPNPA base, at four hours) was 30 % of controls. For the same molecule, the “period of intense stereotypy” value ([3]; one entero-coated tablet containing about 1 mg MPNPA base, observed during the microdialysis experiment) was “between four hours and eight hours”.
With `CCCN1CCc2cccc3c2[C@H]1Cc1ccc(O)c(O)c1-3` [NPA hydrochloride, 6aR-(-)-N-propyl-norapomorphine] the “dopamine release, maximal decrease” value [1, 6] was “about 20% of control values”, the “time of maximal decrease in dopamine release” value [1, 6] was “after about four hours” and the “duration of maximal decrease in dopamine release” value ([1]; one entero-coated tablet containing about 5 mg NPA hydrochloride, until the experiment was stopped) was “lasting for several hours”. For the same molecule, the duration of stereotypy [3, 7] was “more than 24 hours” and the “time until dopaminergic stimulatory signs began” value [3, 7] was 3 to 4 h.
For `CCCN1CCc2cccc3c2[C@H]1Cc1ccc(O)c(O)c1-3` [NPA, 6aR-(-)-N-propyl-norapomorphine], the “duration of dopaminergic behavior: dur” value ([2]; 5.0 mg/kg) was over 540 min.
For `CN1CCc2cccc3c2C1Cc1ccc(OC(=O)C(C)(C)C)c(OC(=O)C(C)(C)C)c1-3` (stereo not drawn) [di-pivaloyl ester, di-pivaloyl esters of apomorphine], the “activity compared with parent compound apomorphine” value [4] is given as “much less active”.
In the case of `CN1CCc2cccc3c2[C@H]1Cc1ccc(O)c(O)c1-3` [Apomorphine Hydrochloride, apomorphine hydrochloride], the dopaminergic stimulation observed [2, 8] was “Very weak dopaminergic stimulation”, the “time period in which dopaminergic effects were observed” value [2, 8] was 10 to 20 min and the “duration of dopaminergic behavior: dur” value ([2]; 4.0 mg/kg) was 90 min. The “duration of dopaminergic behavior: intense stereotypy” value ([2]; 4.0 mg/kg) was “intense stereotypy (5-75); less intense min”, the “duration … less intense stereotypy” value ([2]; 4.0 mg/kg) was 75 to 85 min and the “duration of dopaminergic behavior: dur” value ([2]; 5.0 mg/kg, hydrochloride) was 95 min and 60 min. For the same molecule, the “duration … less intense stereotypy” value ([2]; 5.0 mg/kg, hydrochloride, 5 mg/kg) was 40 to 90 min and 45 to 55 min.
